Reference: US20120015925A1, “NOVEL BENZOTHIAZEPINE AND BENZOTHIEPINE COMPOUNDS” (ASAHI KASEI PHARMA CORPORATION, priority 2004, published 2012)

Legend:
[1] = tested on: male beagle dogs; test: Effect of combination with pravastatin on plasma total cholesterol levels in dogs; assay type: in vivo, dog
Description: The effect of the combination of the compounds described in Example with pravastatin (HMG-CoA reductase inhibitor) on plasma cholesterol levels in dogs was examined.
To male beagle dogs (supplied from Kitayama Labes, body weight 9 to 13 kg), usual solid feedstuff (DS-A: Oriental Yeast Co., Ltd.) was given once daily at 13:00 to 14:00. The light was turned on from 7:00 to 19:00 as a light period, and the remaining was defined as a dark period. Water was given ad libitum. In the morning in the week prior to the administration, the blood was collected with heparin from forearm cephalic vein, and plasma was collected by centrifugation. The total cholesterol level of this plasma was measured using the commercially available cholesterol level measurement kit by the enzymatic method (Cholesterol-E Test Wako). The dogs were grouped so that the total cholesterol levels were almost equal. Sodium pravastatin (1 mg/kg, Sankyo) alone or 3 mg/kg of the compound described in each of Examples alone or the combination thereof was orally administered once daily just before feeding for 7 days. Pravastatin was dissolved in distilled water, and the compound described in Example was suspended in 0.5% methylcellulose solution for administration. On the day after the final administration, the blood was collected from the forearm cephalic vein under starving, to which plasma was obtained. The total cholesterol level therein was measured by the same way. As a result, the total cholesterol level in the plasma was reduced by 7 mg/dL (6%) by orally administering 1 mg/kg/day of pravastatin for 7 days. The total cholesterol level in the plasma was reduced by […] (3 to 8%) by orally administering 3 mg/kg/day of the compound described in each of Examples for 7 days. When pravastatin and the compound described in each of Examples were co-administered at this dosages, the total cholesterol in the plasma was reduced by 14 to 24 mg/dL (12 to 20%). The reduction rate of the total cholesterol level was larger in the co-administration with the compound described in Example than in the administration of pravastatin alone, and the augmented effect by the co-administration was observed.

[2] = tested on: Caco-2 cells; test: Facilitation effect on permeability of combined compound (pravastatin, atorvastatin) through Caco-2 cells
Protocol: The permeability through Caco-2 cells was measured by the same way as in Test Example 15.
It was examined whether the permeability coefficient of the combined compound was changed in the presence of the compound described in Examples or the compound in Comparative Examples.

[3] = pravastatin 1 mg/kg alone, oral once daily for 7 days, vehicle 1

Question: `CC[C@H](C)C(=O)O[C@H]1C[C@H](O)C=C2C=C[C@H](C)[C@H](CC[C@@H](O)C[C@@H](O)CC(=O)O)[C@H]21` [pravastatin, reference compound] was tested. Which “plasma total cholesterol BEFORE TREATMENT” value ([1]; pravastatin 1 mg/kg alone group, baseline, N=4, mean±standard error) did it give?
Answer: The value was 114 ± 6 mg/dL.

Question: What about the “plasma total cholesterol AFTER TREATMENT” value ([1]; pravastatin 1 mg/kg alone, oral once daily for 7 days, N=4, mean±standard error) of the same compound?
Answer: Its value is 106 ± 5 mg/dL.

Question: What about the “plasma total cholesterol BEFORE TREATMENT − AFTER TREATMENT” value [1, 3] of the same compound?
Answer: Its value is 7 mg/dL.

Question: What about the “reduction rate with respect to the data before administration (number in parenthesis)” value [1, 3] of the same compound?
Answer: The value was 6.

Question: What about the “total cholesterol level in the plasma reduced by” value ([1]; pravastatin alone 1 mg/kg/day oral, 7 days) of the same compound?
Answer: The value was 7 mg/dL.

Question: What about the “total cholesterol level in the plasma, reduction rate” value ([1]; pravastatin alone 1 mg/kg/day oral, 7 days, with respect to before administration) of the same compound?
Answer: The value was 6%.

Question: What about the “RATE OF INCREASE (%)” value ([2]; statin alone (reference = 100)) of the same compound?
Answer: The value was 100%.

Question: What about the “[…] (PERMEATION × 10^−6 cm/s)” value ([2]; statin alone, 25 μM, 37° C., 2 hours) of the same compound?
Answer: The value was 0.33 × 10^−6 cm/s.
